Measured values as given in US20230091047A1 (priority 2019, published 2023).
Where two headings read alike, the source gives them in different places.

What was measured:
in vitro = assay type: cell-based; details: human, HepG2 or HepG2.117 cells, 3-days incubation (unmarked values), ATPlite; mean value
Procedure, shortened: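 Luminescent ATP quantitation served as the viability endpoint following a 3- or 4-day incubation with test compounds.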

[1] = system: HBV (HepG2.117 cell line, inducibly HBV producing); assay: Anti-HBV activity: intracellular HBV DNA by real-time PCR in HepG2.117 cells after 3 days of treatment; assay type: cell-based, hepatitis B virus; details: Hepatitis B virus, HepG2.117, 72 h, read-out: EC50 (μM, mean value)
Procedure, shortened: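 First, HBV replication is induced in HepG2.117 cells by doxycycline absence. Next, serially diluted compound is added for 3 days. Finally, intracellular HBV DNA is quantified by HBV-specific real-time PCR.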

[2] = HepG2.117 cells, 3 days of treatment, intracellular HBV DNA by real-time PCR, mean value

Question: What does the source list for `COc1ccc(CNc2nc3c(c(=O)[nH]2)CCN(C(=O)c2ccc(Cl)c(F)c2)C3)cc1` [Compound C106, 7-(4-chloro-3-fluorobenzoyl)-2-{[(4-methoxyphenyl)methyl]amino}-5,6,7,8-tetrahydropyrido[3,4-d]pyrimidin-4(3H)-one]?
Answer: CC50 at 3 days (in vitro): 27.1 µM; EC50 [1, 2]: 21.1 µM

Question: With `COc1ccc(CNc2nc3c(c(=O)n2-c2ccn[nH]2)CCN(C(=O)c2ccc(Cl)c(Cl)c2)C3)cc1` [Compound C107, 7-(3,4-dichlorobenzoyl)-2-{[(4-methoxyphenyl)methyl]amino}-3-(1H-pyrazol-5-yl)-5,6,7,8-tetrahydropyrido[3,4-d]pyrimidin-4(3H)-one] as the molecule, how does the CC50 at 3 days (in vitro) read?
Answer: Its CC50 at 3 days is 22.6 µM.

Question: And the EC50 [1, 2]?
Answer: Its EC50 is 1.78 µM.

Question: With `COc1ccc(CNc2nc3c(c(=O)n2-c2ccnn2C)CCN(C(=O)c2ccc(Cl)c(Cl)c2)C3)cc1` [Compound C108, 7-(3,4-dichlorobenzoyl)-2-{[(4-methoxyphenyl)methyl]amino}-3-(1-methyl-1H-pyrazol-5-yl)-5,6,7,8-tetrahydropyrido[3,4-d]pyrimidin-4(3H)-one] as the molecule, how does the CC50 at 3 days (in vitro) read?
Answer: The CC50 at 3 days was 26.5 µM.

Question: And the EC50 [1, 2]?
Answer: The EC50 was 1.87 µM.

Question: Which results are given for `COc1ccc(CNc2nc3c(c(=O)n2-c2ccc(S(C)(=O)=O)cc2)CC(c2ccc(F)cc2)N(C(=O)c2ccc(Cl)c(Cl)c2)C3)cc1` (centres unmarked) [Compound C109, 7-(3,4-dichlorobenzoyl)-6-(4-fluorophenyl)-3-[4-(methanesulfonyl)phenyl]-2-{[(4-methoxyphenyl)methyl]amino}-5,6,7,8-tetrahydropyrido[3,4-d]pyrimidin-4(3H)-one]?
Answer: CC50 at 3 days (in vitro): > 50 µM; EC50 [1]: 2.11 µM

Question: With `CC(C)Nc1nc2c(c(=O)n1-c1ccc(S(C)(=O)=O)cc1)CC(c1ccc(F)cc1)N(C(=O)c1ccc(Cl)c(Cl)c1)C2` (centres unmarked) [Compound C110, 7-(3,4-dichlorobenzoyl)-6-(4-fluorophenyl)-3-[4-(methanesulfonyl)phenyl]-2-[(propan-2-yl)amino]-5,6,7,8-tetrahydropyrido[3,4-d]pyrimidin-4(3H)-one] as the molecule, how does the CC50 at 3 days (in vitro) read?
Answer: The CC50 at 3 days was > 50 µM.

Question: What about the EC50 [1, 2] of the same molecule?
Answer: Its EC50 is > 50 µM.

Question: For `COc1ccc(CNc2nc3c(c(=O)n2CCNS(C)(=O)=O)CCN(C(=O)c2ccc(Cl)c(Cl)c2)C3)cc1` [Compound C111, N-{2-[7-(3,4-dichlorobenzoyl)-2-{[(4-methoxyphenyl)methyl]amino}-4-oxo-5,6,7,8-tetrahydropyrido[3,4-d]pyrimidin-3(4H)-yl]ethyl}methanesulfonamide], which CC50 at 3 days (in vitro) is on record?
Answer: Its CC50 at 3 days is > 50 µM.

Question: What about the EC50 [1, 2] of the same molecule?
Answer: Its EC50 is 7.64 µM.

Question: What does the source list for `CC(C)Nc1nc2c(c(=O)n1CCNS(C)(=O)=O)CCN(C(=O)c1ccc(Cl)c(Cl)c1)C2` [Compound C112, N-{2-[7-(3,4-dichlorobenzoyl)-4-oxo-2-[(propan-2-yl)amino]-5,6,7,8-tetrahydropyrido[3,4-d]pyrimidin-3(4H)-yl]ethyl}methanesulfonamide]?
Answer: CC50 at 3 days (in vitro): > 50 µM; EC50 [1, 2]: 11.5 µM

Question: Which CC50 at 3 days (in vitro) does the source give for `COc1ccc(CNc2nc3c(c(=O)n2-c2cnccc2C)CCN(C(=O)c2ccc(Cl)c(Cl)c2)C3)cc1` [Compound C113, 7-(3,4-dichlorobenzoyl)-2-{[(4-methoxyphenyl)methyl]amino}-3-(4-methylpyridin-3-yl)-5,6,7,8-tetrahydropyrido[3,4-d]pyrimidin-4(3H)-one] here?
Answer: The CC50 at 3 days was 19.4 µM.

Question: What about the EC50 [1, 2] of the same molecule?
Answer: Its EC50 is 0.65 µM.

Question: With `Cc1ccncc1-n1c(NC(C)C)nc2c(c1=O)CCN(C(=O)c1ccc(Cl)c(Cl)c1)C2` [Compound C114, 7-(3,4-dichlorobenzoyl)-3-(4-methylpyridin-3-yl)-2-[(propan-2-yl)amino]-5,6,7,8-tetrahydropyrido[3,4-d]pyrimidin-4(3H)-one] as the molecule, how does the CC50 at 3 days (in vitro) read?
Answer: The CC50 at 3 days was > 50 µM.

Question: And the EC50 [1, 2]?
Answer: Its EC50 is 1.78 µM.

Question: Which CC50 at 3 days (in vitro) does the source give for `COc1ccc(CNc2nc3c(c(=O)[nH]2)CCN(C(=O)c2ccc(Cl)cc2)C3)cc1` [Compound C115, 7-(4-chlorobenzoyl)-2-{[(4-methoxyphenyl)methyl]amino}-5,6,7,8-tetrahydropyrido[3,4-d]pyrimidin-4(3H)-one] here?
Answer: The CC50 at 3 days was 42.8 µM.

Question: And the EC50 [1, 2]?
Answer: The EC50 was 37.1 µM.

Question: For `COc1ccc(CNc2nc3c(c(=O)[nH]2)CCN(C(=O)c2ccc(Br)cc2)C3)cc1` [Compound C116, 7-(4-bromobenzoyl)-2-{[(4-methoxyphenyl)methyl]amino}-5,6,7,8-tetrahydropyrido[3,4-d]pyrimidin-4(3H)-one], which CC50 at 3 days (in vitro) is on record?
Answer: The CC50 at 3 days was 27.4 µM.

Question: And the EC50 [1, 2]?
Answer: The EC50 was 21.6 µM.

Question: For `COc1ccc(CNc2nc3c(c(=O)[nH]2)CCN(C(=O)c2ccc(I)cc2)C3)cc1` [Compound C117, 7-(4-iodobenzoyl)-2-{[(4-methoxyphenyl)methyl]amino}-5,6,7,8-tetrahydropyrido[3,4-d]pyrimidin-4(3H)-one], which CC50 at 3 days (in vitro) is on record?
Answer: The CC50 at 3 days was 43.5 µM.

Question: What about the EC50 [1, 2] of the same molecule?
Answer: The EC50 was 9.61 µM.

Question: For `COc1ccc(CNc2nc3c(c(=O)[nH]2)CCN(C(=O)c2ccc(C(F)(F)F)cc2)C3)cc1` [Compound C118, 2-{[(4-methoxyphenyl)methyl]amino}-7-[4-(trifluoromethyl)benzoyl]-5,6,7,8-tetrahydropyrido[3,4-d]pyrimidin-4(3H)-one], which CC50 at 3 days (in vitro) is on record?
Answer: The CC50 at 3 days was 39 µM.

Question: And the EC50 [1, 2]?
Answer: The EC50 was 22 µM.

Question: For `COc1ccc(CNc2nc3c(c(=O)n2C2CCS(=O)(=O)CC2)CCN(C(=O)c2ccc(Cl)c(Cl)c2)C3)cc1` [Compound C119, 4-[7-(3,4-dichlorobenzoyl)-2-{[(4-methoxyphenyl)methyl]amino}-4-oxo-5,6,7,8-tetrahydropyrido[3,4-d]pyrimidin-3(4H)-yl]-1λ^6-thiane-1,1-dione], which CC50 at 3 days (in vitro) is on record?
Answer: The CC50 at 3 days was 33.5 µM.

Question: And the EC50 [1, 2]?
Answer: The EC50 was 6.95 µM.

Question: Which results are given for `CC(C)Nc1nc2c(c(=O)n1C1CCS(=O)(=O)CC1)CCN(C(=O)c1ccc(Cl)c(Cl)c1)C2` [Compound C120, 4-[7-(3,4-dichlorobenzoyl)-4-oxo-2-[(propan-2-yl)amino]-5,6,7,8-tetrahydropyrido[3,4-d]pyrimidin-3(4H)-yl]-1λ^6-thiane-1,1-dione]?
Answer: CC50 at 3 days (in vitro): > 50 µM; EC50 [1, 2]: 7.36 µM

Question: Which CC50 at 3 days (in vitro) does the source give for `CCOC(=O)c1ccc(-n2c(NCc3ccc(OC)cc3)nc3c(c2=O)CCN(C(=O)c2ccc(Cl)c(Cl)c2)C3)cc1` [Compound C121, ethyl 4-[7-(3,4-dichlorobenzoyl)-2-{[(4-methoxyphenyl)methyl]amino}-4-oxo-5,6,7,8-tetrahydropyrido[3,4-d]pyrimidin-3(4H)-yl]benzoate] here?
Answer: Its CC50 at 3 days is > 50 µM.

Question: What about the EC50 [1, 2] of the same molecule?
Answer: The EC50 was 1.55 µM.

Question: Which CC50 at 3 days (in vitro) does the source give for `CC(C)Nc1nc2c(c(=O)n1-c1ccncc1)CCN(C(=O)c1ccc(Cl)c(Cl)c1)C2` [Compound C122, 7-(3,4-dichlorobenzoyl)-2-[(propan-2-yl)amino]-3-(pyridin-4-yl)-5,6,7,8-tetrahydropyrido[3,4-d]pyrimidin-4(3H)-one] here?
Answer: The CC50 at 3 days was > 50 µM.

Question: And the EC50 [1, 2]?
Answer: The EC50 was 1.44 µM.

Question: Which results are given for `COc1ccc(CNc2nc3c(c(=O)n2-c2ccncc2)CCN(C(=O)c2ccc(Cl)c(Cl)c2)C3)cc1` [Compound C123, 7-(3,4-dichlorobenzoyl)-2-{[(4-methoxyphenyl)methyl]amino}-3-(pyridin-4-yl)-5,6,7,8-tetrahydropyrido[3,4-d]pyrimidin-4(3H)-one]?
Answer: CC50 at 3 days (in vitro): 24.4 µM; EC50 [1, 2]: 1.23 µM

Question: Which results are given for `COc1ccc(CNc2nc3c(c(=O)n2-c2ccc(C(=O)O)cc2)CCN(C(=O)c2ccc(Cl)c(Cl)c2)C3)cc1` [Compound C124, 4-[7-(3,4-dichlorobenzoyl)-2-{[(4-methoxyphenyl)methyl]amino}-4-oxo-5,6,7,8-tetrahydropyrido[3,4-d]pyrimidin-3(4H)-yl]benzoic acid]?
Answer: CC50 at 3 days (in vitro): > 50 µM; EC50 [1, 2]: 36.8 µM

Question: What does the source list for `COc1ccc(CNc2nc3c(c(=O)n2-c2ccc(Br)cc2)CCN(C(=O)c2ccc(Cl)c(Cl)c2)C3)cc1` [Compound C125, 3-(4-bromophenyl)-7-(3,4-dichlorobenzoyl)-2-{[(4-methoxyphenyl)methyl]amino}-5,6,7,8-tetrahydropyrido[3,4-d]pyrimidin-4(3H)-one]?
Answer: CC50 at 3 days (in vitro): > 50 µM; EC50 [1, 2]: 1.64 µM

Question: For `COc1ccc(CNc2nc3c(c(=O)n2-c2ccc(C(C)=O)cc2)CCN(C(=O)c2ccc(Cl)c(Cl)c2)C3)cc1` [Compound C126, 3-(4-acetylphenyl)-7-(3,4-dichlorobenzoyl)-2-{[(4-methoxyphenyl)methyl]amino}-5,6,7,8-tetrahydropyrido[3,4-d]pyrimidin-4(3H)-one], which CC50 at 3 days (in vitro) is on record?
Answer: The CC50 at 3 days was > 50 µM.

Question: And the EC50 [1, 2]?
Answer: The EC50 was 1.51 µM.

Question: For `CC(=O)c1ccc(-n2c(NC(C)C)nc3c(c2=O)CCN(C(=O)c2ccc(Cl)c(Cl)c2)C3)cc1` [Compound C127, 3-(4-acetylphenyl)-7-(3,4-dichlorobenzoyl)-2-[(propan-2-yl)amino]-5,6,7,8-tetrahydropyrido[3,4-d]pyrimidin-4(3H)-one], which CC50 at 3 days (in vitro) is on record?
Answer: The CC50 at 3 days was > 50 µM.

Question: What about the EC50 [1, 2] of the same molecule?
Answer: The EC50 was 1.28 µM.

Question: Which results are given for `COc1ccc(CNc2nc3c(c(=O)n2-c2ccc(N4CCOCC4)cc2)CCN(C(=O)c2ccc(Cl)c(Cl)c2)C3)cc1` [Compound C128, 7-(3,4-dichlorobenzoyl)-2-{[(4-methoxyphenyl)methyl]amino}-3-[4-(morpholin-4-yl)phenyl]-5,6,7,8-tetrahydropyrido[3,4-d]pyrimidin-4(3H)-one]?
Answer: CC50 at 3 days (in vitro): > 50 µM; EC50 [1, 2]: 1.06 µM

Question: For `CNC(=O)c1ccc(-n2c(NCc3ccc(OC)cc3)nc3c(c2=O)CCN(C(=O)c2ccc(Cl)c(Cl)c2)C3)cc1` [Compound C129, 4-[7-(3,4-dichlorobenzoyl)-2-{[(4-methoxyphenyl)methyl]amino}-4-oxo-5,6,7,8-tetrahydropyrido[3,4-d]pyrimidin-3(4H)-yl]-N-methylbenzamide], which CC50 at 3 days (in vitro) is on record?
Answer: The CC50 at 3 days was 44.4 µM.

Question: What about the EC50 [1, 2] of the same molecule?
Answer: Its EC50 is 0.44 µM.

Question: Which CC50 at 3 days (in vitro) does the source give for `CC(C)Nc1nc2c(c(=O)n1-c1ccc(N3CCOCC3)cc1)CCN(C(=O)c1ccc(Cl)c(Cl)c1)C2` [Compound C130, 7-(3,4-dichlorobenzoyl)-3-[4-(morpholin-4-yl)phenyl]-2-[(propan-2-yl)amino]-5,6,7,8-tetrahydropyrido[3,4-d]pyrimidin-4(3H)-one] here?
Answer: Its CC50 at 3 days is > 50 µM.

Question: What about the EC50 [1, 2] of the same molecule?
Answer: The EC50 was 0.48 µM.
